According to patent publication US9511052B2, “Mineralocorticoid receptor antagonists” (Merck Sharp & Dohme Corp., priority 2012, dated 2016):
Each block holds one molecule with its values, some of them ahead of it.

Key:
[1] = target: T1, full-length human Mineralocorticoid Receptor (MR) (Homo sapiens, UniProt P08235); assay: human MR NH Pro assay (PathHunter Protein:Protein interaction assay), MR antagonism; assay type: cell-based; conditions: IP = inflection point of the dose-response curve; CHO-K1 cells overexpressing human MR, aldosterone about 0.3 nM to about 1 nM, 6 hours at 37° C.
T1 construct: host or cells: PathHunter CHO-K1 MR cells
T1 sequence (P08235 1-984): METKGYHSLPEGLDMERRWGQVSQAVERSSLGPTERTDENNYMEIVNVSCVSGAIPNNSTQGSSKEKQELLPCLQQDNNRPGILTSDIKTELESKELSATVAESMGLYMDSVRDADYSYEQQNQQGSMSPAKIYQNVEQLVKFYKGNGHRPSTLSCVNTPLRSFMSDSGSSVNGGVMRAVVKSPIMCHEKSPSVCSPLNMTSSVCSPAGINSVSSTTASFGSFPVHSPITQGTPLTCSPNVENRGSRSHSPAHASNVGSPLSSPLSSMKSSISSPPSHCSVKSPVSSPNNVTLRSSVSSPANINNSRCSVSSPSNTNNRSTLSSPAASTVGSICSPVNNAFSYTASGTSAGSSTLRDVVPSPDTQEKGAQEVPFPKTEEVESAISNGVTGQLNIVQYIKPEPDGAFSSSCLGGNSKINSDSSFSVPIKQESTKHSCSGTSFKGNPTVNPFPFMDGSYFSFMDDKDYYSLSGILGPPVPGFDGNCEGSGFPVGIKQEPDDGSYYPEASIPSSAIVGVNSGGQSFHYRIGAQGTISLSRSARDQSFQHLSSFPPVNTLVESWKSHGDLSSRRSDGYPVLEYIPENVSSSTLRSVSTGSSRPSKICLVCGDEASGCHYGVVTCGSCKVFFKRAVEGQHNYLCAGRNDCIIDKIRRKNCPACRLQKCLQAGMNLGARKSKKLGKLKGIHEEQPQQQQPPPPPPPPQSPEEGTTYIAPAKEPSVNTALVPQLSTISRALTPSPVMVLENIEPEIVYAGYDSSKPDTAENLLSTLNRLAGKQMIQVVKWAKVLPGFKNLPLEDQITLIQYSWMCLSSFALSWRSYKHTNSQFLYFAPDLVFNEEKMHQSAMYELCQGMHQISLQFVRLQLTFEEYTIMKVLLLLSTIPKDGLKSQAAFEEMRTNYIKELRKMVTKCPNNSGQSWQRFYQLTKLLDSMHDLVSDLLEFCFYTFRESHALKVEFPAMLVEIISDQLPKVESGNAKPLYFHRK
Excerpt: The activity of the compounds of the present invention regarding mineralocorticoid receptor antagonism can be evaluated using the following assay.
Assessment of MR Potency in HMR NH Pro Assay
The human MR NH Pro assay is a commercially available PathHunter™ Protein:Protein interaction assay (DiscoveRx; http://www.discoverx.com/nhrs/prod-nhrs.php) that measures the ability of compounds to antagonize full-length human Mineralocorticoid Receptor (MR) binding to a coactivator peptide.
Stock solution was prepared at 10 μM in DMSO and stored at −20° C. for assay, dilute in assay media to 1.8 or 6 nM (6× of final concentration=about 0.3 nM to about 1.0 nM)
5. Cell line: PathHunter CHO-K1 MR cells Cat #93-0456C2, Lot No: 09B0913, from operation liquid nitrogen stock.
6. Control Antagonist: Spironolactone: Sigma #S-3378 and Eplerenone Sigma #107724-20-9 (10 mM stock concentration also prepared in DMSO and stored at −20° C.).
1. Cells are grown in F12+FBS+Hygromycin+pen/strep+Genetin
2. Cells are collected with 0.05% trypsin and the cell suspension is spun and resuspended in a volume of F12+1.5% CD-FBS and counted.
3. The cells concentration was adjusted to 4×10^5 cells/mL.
4. Cells were (25 μL/well) added to the wells of a 384 well plate.
5. The plate was then incubated at 37° C. over night in a humidified incubator with 5% CO2.
6. Test compounds were titrated starting at 4.4 mM, 10-point titration in 1:3 dilution.
Protocol for 384 well plate format: 6 hr treatment:
1. 10K exponentially growing cells/well (25 μL) were resuspended in assay media and plated into each well using the Multidrop (Thermo Electron) (use white wall, clear bottom assay plates (Costar #3570) and incubated overnight at 37° C., 5% CO2.
2. 0.25 μL 120× test compound (final DMSO concentration should be <1%) was added to each well n=2, 10 point titrations starting at 36.7 μM final concentration.
4. 5 μL of assay media was added to all wells in column 23 and 24.
5. Cells were then incubated for 6 hrs at 37° C., 5% CO2.
6. 15 μL 3× DiscoveRx detection reagent was then added to each well.
7. Plates were incubated for 1 hour at room temperature in the dark.
8. Plates were read on Envision (PerkinElmer) luminesence plate reader and analyzed using ADA.

[2] = Hepatocyte stability, dog; assay type: in vitro ADME; conditions: hepatocytes, read-out: Hepatocyte Stability (t1/2)
[3] = PK profile in rats; assay type: in vivo, rat; conditions: for clearance / half-life / bioavailability: rat, in vivo; for bioavailability: oral
[4] = Metabolic stability in liver microsome and hepatocytes of multiple animal species (overall statement); assay type: in vitro ADME
[5] = Hepatocyte stability, human; assay type: in vitro ADME
[6] = Liver microsome stability, dog; assay type: in vitro ADME; conditions: liver microsomes, read-out: Liver Microsome Stability (t1/2)
[7] = Hepatocyte stability, rhesus monkey; assay type: in vitro ADME; conditions: hepatocytes, read-out: Hepatocyte Stability (t1/2)
[8] = Hepatocyte stability, rat; assay type: in vitro ADME; conditions: hepatocytes, read-out: Hepatocyte Stability (t1/2)
[9] = Liver microsome stability, human; assay type: in vitro ADME
[10] = Liver microsome stability, rhesus monkey; assay type: in vitro ADME; conditions: liver microsomes, read-out: Liver Microsome Stability (t1/2)
[11] = Liver microsome stability, rat; assay type: in vitro ADME; conditions: liver microsomes, read-out: Liver Microsome Stability (t1/2)

Compound: CCC(c1ccc(Br)cc1)(C(C)O)n1ncc2c(NS(C)(=O)=O)cccc21 (single isomer, unassigned) [Compound 2, N-(1-(3-(4-bromophenyl)-2-hydroxypentan-3-yl)-1H-indazol-4-yl) methanesulfonamide]
- IC50 [1]: 7 nM
- half-life [2]: 0.75 h
- PK profile in rats (in words) [3]: good PK profile
- AUCN po [3]: 1.0 µM·kg·h/mg
- clearance [3]: 18 mL/min/kg
- half-life [3]: 3.6 h
- bioavailability [3]: 49%
- metabolic stability in liver microsome and hepatocytes of multiple animal species (in words) [4]: good metabolic stability
- Hepatocyte Stability (t1/2) ([5]; Human): 1.15 h
- half-life [6]: 1.12 h
- half-life [7]: 0.933 h
- half-life [8]: > 1.5 h
- Liver Microsome Stability (t1/2) ([9]; Human): 0.8 h
- half-life [10]: 0.383 h
- half-life [11]: 0.883 h

Compound: CCC(c1ccc(C(F)(F)F)cc1)(C(O)C(F)F)n1ncc2c(NS(=O)(=O)CC)cccc21 (single isomer, unassigned) [Compound 49, N-(1-(1,1-difluoro-2-hydroxy-3-(4-(trifluoromethyl)phenyl)pentan-3-yl)-1H-indazol-4-yl)ethanesulfonamide]
- IC50 [1]: 7 nM

Compound: CCC(c1ccc(C(F)(F)F)cc1)(C(O)C(F)F)n1ncc2c(NS(=O)(=O)CC)cccc21 (single isomer, unassigned) [Compound 50, N-(1-(1,1-difluoro-2-hydroxy-3-(4-(trifluoromethyl)phenyl)pentan-3-yl)-1H-indazol-4-yl)ethanesulfonamide]
- IC50 [1]: 4 nM

Compound: CCC(c1ccc(C(F)(F)F)cc1)(C(O)C(F)F)n1ncc2c(NS(C)(=O)=O)cc(F)cc21 (single isomer, unassigned) [Compound 51, N-(1-(1,1-difluoro-2-hydroxy-3-(4-(trifluoromethyl)phenyl)pentan-3-yl)-6-fluoro-1H-indazol-4-yl) methanesulfonamide]
- IC50 [1]: 13 nM

Compound: CCC(c1ccc(C(F)(F)F)cc1)(C(O)C(F)F)n1ncc2c(NS(C)(=O)=O)cc(F)cc21 (single isomer, unassigned) [Compound 52, N-(1-(1,1-difluoro-2-hydroxy-3-(4-(trifluoromethyl)phenyl)pentan-3-yl)-6-fluoro-1H-indazol-4-l) methanesulfonamide]
- IC50 [1]: 28 nM

Compound: CCC(c1ccc(C(F)(F)F)cc1)(C(O)C(F)F)n1ncc2c(NS(=O)(=O)CC)cc(F)cc21 (single isomer, unassigned) [Compound 53, N-(1-(1,1-difluoro-2-hydroxy-3-(4-(trifluoromethyl)phenyl)pentan-3-yl)-6-fluoro-1H-indazol-4-yl)ethanesulfonamide]
- IC50 [1]: 11 nM

Compound: CCC(c1ccc(C(F)(F)F)cc1)(C(O)C(F)F)n1ncc2c(NS(=O)(=O)CC)cc(F)cc21 (single isomer, unassigned) [Compound 54, N-(1-(1,1-difluoro-2-hydroxy-3-(4-(trifluoromethyl)phenyl)pentan-3-yl)-6-fluoro-1H-indazol-4-l)ethanesulfonamide]
- IC50 [1]: 12 nM

Next, values leading:

- IC50 [1]: 50 nM
- PK profile in rats (in words) [3]: good PK profile
- AUCN po [3]: 2.7 µM·kg·h/mg
- clearance [3]: 14 mL/min/kg
- half-life [3]: 7 h
- bioavailability [3]: 98%
- metabolic stability in liver microsome and hepatocytes of multiple animal species (in words) [4]: good metabolic stability
Compound: CC(O)C(CC(F)F)(c1ccc(C(F)(F)F)cc1)n1ncc2c(NS(C)(=O)=O)cccc21 (single isomer, unassigned) [Compound 35, N-(1-(1,1-difluoro-4-hydroxy-3-(4-(trifluoromethyl)phenyl)pentan-3-yl)-1H-indazol-4-yl)methanesulfonamide]

- IC50 [1]: 66 nM
- half-life [2]: 1.32 h
- half-life ([5]; human, hepatocytes, read-out: Hepatocyte Stability (t1/2)): > 1.5 h
- half-life [6]: 0.967 h
- half-life [7]: > 1.5 h
- half-life [8]: > 1.5 h
- half-life ([9]; human, liver microsomes, read-out: Liver Microsome Stability (t1/2)): 1.43 h
- half-life [10]: 2.05 h
- half-life [11]: 2.03 h
Compound: CC(O)C(CC(F)F)(c1ccc(C(F)(F)F)cc1)n1ncc2c(NS(C)(=O)=O)cccc21 (single isomer, unassigned) [Compound 37, N-(1-(1,1-difluoro-4-hydroxy-3-(4-(trifluoromethyl)phenyl)pentan-3-yl)-1H-indazol-4-yl)methanesulfonamide]

- IC50 [1]: 274 nM
Compound: CS(=O)(=O)Nc1cccc2c1cnn2C(CC(F)F)(C(N)=O)c1ccc(C(F)(F)F)cc1 (single isomer, unassigned) [Compound 45, 4,4-difluoro-2-(4-(methylsulfonamido)-1H-indazol-1-yl)-2-(4-(trifluoromethyl)phenyl)butanamide]

- IC50 [1]: 6 nM
Compound: CCC(c1ccc(C(F)(F)F)cc1)(C(O)C(F)F)n1ncc2c(NS(C)(=O)=O)cccc21 (single isomer, unassigned) [Compound 48, N-(1-(1,1-difluoro-2-hydroxy-3-(4-(trifluoromethyl)phenyl)pentan-3-yl)-1H-indazol-4-yl)methanesulfonamide]

- IC50 [1]: 18 nM
Compound: CCC(O)C(CC(F)F)(c1ccc(C(F)(F)F)cc1)n1ncc2c(NS(=O)(=O)CC)cccc21 (single isomer, unassigned) [Compound 55, N-(1-(1,1-difluoro-4-hydroxy-3-(4-(trifluoromethyl)phenyl)hexan-3-yl)-1H-indazol-4-yl)ethanesulfonamide]

- IC50 [1]: 10 nM
Compound: CCC(O)C(CC(F)F)(c1ccc(C(F)(F)F)cc1)n1ncc2c(NS(=O)(=O)CC)cccc21 (single isomer, unassigned) [Compound 56, N-(1-(1,1-difluoro-4-hydroxy-3-(4-(trifluoromethyl)phenyl)hexan-3-yl)-1H-indazol-4-yl)ethanesulfonamide]

- IC50 [1]: 43 nM
Compound: CCS(=O)(=O)Nc1cccc2c1cnn2C(CC(F)F)(c1ccc(C(F)(F)F)cc1)C(C)O (single isomer, unassigned) [Compound 57, N-(1-(1,1-difluoro-4-hydroxy-3-(4-(trifluoromethyl)phenyl)pentan-3-yl)-1H-indazol-4-yl)ethanesulfonamide]

- IC50 [1]: 38 nM
Compound: CCS(=O)(=O)Nc1cccc2c1cnn2C(CC(F)F)(c1ccc(C(F)(F)F)cc1)C(C)O (single isomer, unassigned) [Compound 58, N-(1-(1,1-difluoro-4-hydroxy-3-(4-(trifluoromethyl)phenyl)pentan-3-yl)-1H-indazol-4-yl)ethanesulfonamide]
